Data published in patent publication US12441733B2, “Substituted 2,4-dioxotetrahydropyrimidines as intermediates in the synthesis of bruton's tyrosine kinase inhibitors” (Novartis AG, priority 2018, dated 2025).

Target: T1, BTK-GFP (Homo sapiens, UniProt Q06187+Q96SW2)
T1 construct: expressed in transfected cells; host or cells: HEK293A (Invitrogen R70507), lentiviral transduction with pLenti6-BTK-GFP-Ires-RFP, blasticidin selection
Assay: BTK-GFP protein abundance flow cytometry assay in HEK293A cells
Assay type: cell-based
Conditions: HEK293A BTK-GFP-iresRFP cells, 24 h; for DC50: GFP signal by flow cytometry, concentration at which 50% maximal degradation was observed; for BTK deg Amax: % protein remaining at the concentration at which maximum degradation is seen
In short: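 HEK293A cells stably expressing bicistronic BTK-GFP-IRES-RFP (C-terminal GFP tag) via lentiviral vector. Degradation read by flow cytometry as loss of GFP signal after degrader treatment. DC50 is concentration giving 50% maximal degradation; Amax is % protein remaining at maximal degradation.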

T1 sequence (Q06187 whole entry): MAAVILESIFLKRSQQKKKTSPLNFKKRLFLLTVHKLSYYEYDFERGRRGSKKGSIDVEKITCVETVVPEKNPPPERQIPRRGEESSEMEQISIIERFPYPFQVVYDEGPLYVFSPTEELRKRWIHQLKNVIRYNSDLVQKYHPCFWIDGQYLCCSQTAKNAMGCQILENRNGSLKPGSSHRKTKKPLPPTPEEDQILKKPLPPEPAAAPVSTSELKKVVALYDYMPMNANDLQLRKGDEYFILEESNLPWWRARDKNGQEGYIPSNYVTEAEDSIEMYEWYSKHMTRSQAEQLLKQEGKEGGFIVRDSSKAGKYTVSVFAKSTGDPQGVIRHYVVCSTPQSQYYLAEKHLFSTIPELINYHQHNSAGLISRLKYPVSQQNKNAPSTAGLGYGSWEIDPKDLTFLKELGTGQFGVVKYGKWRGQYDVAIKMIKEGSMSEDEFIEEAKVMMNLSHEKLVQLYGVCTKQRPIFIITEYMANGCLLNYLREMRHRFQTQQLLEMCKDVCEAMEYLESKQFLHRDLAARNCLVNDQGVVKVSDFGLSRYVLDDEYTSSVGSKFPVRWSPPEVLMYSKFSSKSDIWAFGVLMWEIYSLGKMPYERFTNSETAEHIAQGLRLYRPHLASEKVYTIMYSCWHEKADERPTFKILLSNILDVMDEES
T1 sequence (Q96SW2 whole entry): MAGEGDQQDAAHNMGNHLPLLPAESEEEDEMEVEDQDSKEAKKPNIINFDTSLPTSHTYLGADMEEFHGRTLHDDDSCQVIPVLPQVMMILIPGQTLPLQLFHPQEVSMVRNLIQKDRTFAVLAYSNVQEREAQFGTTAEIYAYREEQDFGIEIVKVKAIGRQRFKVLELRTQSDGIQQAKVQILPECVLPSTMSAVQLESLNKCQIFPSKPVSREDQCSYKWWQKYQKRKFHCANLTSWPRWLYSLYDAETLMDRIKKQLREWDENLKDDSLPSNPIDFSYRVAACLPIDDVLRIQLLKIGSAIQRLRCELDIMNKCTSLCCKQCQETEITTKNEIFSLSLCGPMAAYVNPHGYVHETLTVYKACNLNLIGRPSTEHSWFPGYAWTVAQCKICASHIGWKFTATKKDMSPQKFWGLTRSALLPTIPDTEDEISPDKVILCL
T1 sequence (Q16531 whole entry partner): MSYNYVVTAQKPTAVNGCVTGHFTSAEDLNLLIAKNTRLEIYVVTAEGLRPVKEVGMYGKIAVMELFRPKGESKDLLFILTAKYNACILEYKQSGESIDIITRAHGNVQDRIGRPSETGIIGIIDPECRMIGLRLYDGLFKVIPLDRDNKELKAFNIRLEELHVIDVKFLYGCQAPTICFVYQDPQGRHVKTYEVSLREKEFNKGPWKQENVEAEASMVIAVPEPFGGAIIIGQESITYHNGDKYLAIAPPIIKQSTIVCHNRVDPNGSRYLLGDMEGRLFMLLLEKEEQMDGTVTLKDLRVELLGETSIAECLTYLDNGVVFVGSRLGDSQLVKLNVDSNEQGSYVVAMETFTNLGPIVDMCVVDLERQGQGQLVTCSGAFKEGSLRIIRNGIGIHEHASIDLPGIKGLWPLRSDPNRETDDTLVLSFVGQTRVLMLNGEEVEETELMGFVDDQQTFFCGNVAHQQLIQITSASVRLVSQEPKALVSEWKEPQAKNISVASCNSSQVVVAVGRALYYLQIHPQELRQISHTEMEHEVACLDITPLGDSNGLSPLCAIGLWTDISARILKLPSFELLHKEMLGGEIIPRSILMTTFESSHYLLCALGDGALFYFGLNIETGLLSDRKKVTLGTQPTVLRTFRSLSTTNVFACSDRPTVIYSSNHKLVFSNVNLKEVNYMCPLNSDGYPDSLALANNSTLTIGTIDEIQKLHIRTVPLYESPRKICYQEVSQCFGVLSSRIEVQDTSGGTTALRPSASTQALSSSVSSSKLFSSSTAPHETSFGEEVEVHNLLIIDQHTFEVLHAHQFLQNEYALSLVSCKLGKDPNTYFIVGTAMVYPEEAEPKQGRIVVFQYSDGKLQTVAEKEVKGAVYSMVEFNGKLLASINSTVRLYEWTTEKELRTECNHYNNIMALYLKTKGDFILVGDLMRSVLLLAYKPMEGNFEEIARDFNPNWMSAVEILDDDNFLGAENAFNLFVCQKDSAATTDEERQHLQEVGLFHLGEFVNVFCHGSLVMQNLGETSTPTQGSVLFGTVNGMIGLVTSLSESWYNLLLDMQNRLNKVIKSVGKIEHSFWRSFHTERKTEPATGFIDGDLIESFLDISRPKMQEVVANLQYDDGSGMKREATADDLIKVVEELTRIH

DC50 [nM] | BTK deg Amax [%] | Compound
2.2 | 6.7 | Cc1c(NC(=O)c2ccc(C(C)(C)O)cc2F)cc(F)cc1-c1ncnc2[nH]c(-c3ccc(CCN4CCC5(CC4)CCN(C(=O)c4ccc(F)c(N6CCC(=O)NC6=O)c4)CC5)cc3)cc12 [Compound 47, N-(3-(6-(4-(2-(9-(3-(2,4-dioxotetrahydropyrimidin-1(2H)-yl)-4-fluorobenzoyl)-3,9-diazaspiro[5.5]undecan-3-yl)ethyl)phenyl)-7H-pyrrolo[2,3-d]pyrimidin-4-yl)-5-fluoro-2-methylphenyl)-2-fluoro-4-(2-hydroxypropan-2-yl)benzamide]
0.6 | 2.7 | COc1ccc(C(=O)N2CCC(CN3CCC(Oc4ccc(-c5cc6c(-c7cc(F)cc(NC(=O)c8ccc(C(C)(C)O)cc8F)c7C)ncnc6[nH]5)cc4)CC3)CC2)cc1N1CCC(=O)NC1=O [Compound 19, N-(3-(6-(4-((1-((1-(3-(2,4-Dioxotetrahydropyrimidin-1(2H)-yl)-4-methoxybenzoyl)piperidin-4-yl)methyl)piperidin-4-yl)oxyl)phenyl)-7H-pyrrolo[2,3-d]pyrimidin-4-yl)-5-fluoro-2-methylphenyl)-2-fluoro-4-(2-hydroxypropan-2-yl)benzamide]
53.2 | 4.6 | COc1ccc(C(=O)N2CCN(CCCCNCc3ccc(-c4cc5c(-c6cc(F)cc(NC(=O)c7ccc(C(C)(C)O)cc7F)c6C)ncnc5[nH]4)cc3)CC2)cc1N1CCC(=O)NC1=O [Compound 40, N-(3-(6-(4-(((4-(4-(3-(2,4-dioxotetrahydropyrimidin-1(2H)-yl)-4-methoxybenzoyl)piperazin-1-yl)butyl)amino)methyl)phenyl)-7H-pyrrolo[2,3-d]pyrimidin-4-yl)-5-fluoro-2-methylphenyl)-2-fluoro-4-(2-hydroxypropan-2-yl)benzamide]
2.5 | 3.4 | COc1ccc(C(=O)N2CCC3(CCN(CCc4ccc(-c5cc6c(-c7cc(F)cc(NC(=O)c8ccc(C(C)(C)O)cc8F)c7C)ncnc6[nH]5)cc4)CC3)CC2)cc1N1CCC(=O)NC1=O [Compound 31, N-(3-(6-(4-(2-(9-(3-(2,4-Dioxotetrahydropyrimidin-1(2H)-yl)-4-methoxybenzoyl)-3,9-diazaspiro[5.5]undecan-3-yl)ethyl)phenyl)-7H-pyrrolo[2,3-d]pyrimidin-4-yl)-5-fluoro-2-methylphenyl)-2-fluoro-4-(2-hydroxypropan-2-yl)benzamide]

Continued, compound first:

Compound | DC50 [nM] | BTK deg Amax [%]
COc1ccc(C(=O)N2CCN(C(=O)N3CCN(Cc4ccc(-c5cc6c(-c7cc(F)cc(NC(=O)c8ccc(C(C)(C)O)cc8F)c7C)ncnc6[nH]5)cc4)CC3)CC2)cc1N1CCC(=O)NC1=O [Compound 22, N-(3-(6-(4-((4-(4-(3-(2,4-Dioxotetrahydropyrimidin-1(2H)-yl)-4-methoxybenzoyl)piperazine-1-carbonyl)piperazin-1-yl)methyl)phenyl)-7H-pyrrolo[2,3-d]pyrimidin-4-yl)-5-fluoro-2-methylphenyl)-2-fluoro-4-(2-hydroxypropan-2-yl)benzamide] | 23.7 | 6.5
COc1ccc(C(=O)NCCN2CCOC3(CCN(Cc4ccc(-c5cc6c(-c7cc(F)cc(NC(=O)c8ccc(C(C)(C)O)cc8F)c7C)ncnc6[nH]5)cc4)CC3)C2)cc1N1CCC(=O)NC1=O [Compound 39, N-(3-(6-(4-((4-(2-(3-(2,4-dioxotetrahydropyrimidin-1(2H)-yl)-4-methoxybenzamido)ethyl)-1-oxa-4,9-diazaspiro[5.5]undecan-9-yl)methyl)phenyl)-7H-pyrrolo[2,3-d]pyrimidin-4-yl)-5-fluoro-2-methylphenyl)-2-fluoro-4-(2-hydroxypropan-2-yl)benzamide] | 149 | 12.7
Cc1c(NC(=O)c2ccc(C(C)(C)O)cc2F)cc(F)cc1-c1ncnc2[nH]c(-c3ccc(CN4CCC5(CC4)CCN(C(=O)c4ccc(F)c(N6CCC(=O)NC6=O)c4)CC5)cc3)cc12 [Compound 14, N-(3-(6-(4-((9-(3-(2,4-Dioxotetrahydropyrimidin-1(2H)-yl)-4-fluorobenzoyl)-3,9-diazaspiro[5.5]undecan-3-yl)methyl)phenyl)-7H-pyrrolo[2.3-d]pyrimidin-4-yl)-5-fluoro-2-methylphenyl)-2-fluoro-4-(2-hydroxypropan-2-yl)benzamide] | 3.8 | 11.7
